Patent US20050282751A1, “Therapeutic agent for renal anemia” (Ajinomoto Co., Inc., priority 2004, published 2005)

Columns and labels:
[1] = tested on: patients with renal anemia; conditions: conventional treatment with rHuEPO preparation; cited from earlier work
[2] = tested on: patients with renal anemia; assay: Clinical test: hemoglobin in patients with renal anemia, oral Argi U granules; type: in vivo, human
Method: The administration period was at the longest 18 weeks. The amount of each of hemoglobin, BUN (blood urea nitrogen), Cre (creatinine), Fe and erythropoietin in blood was determined by methods described below.
Hemoglobin was determined with an automatic blood cell analysis device.
The hemoglobin concentration of each case determined before and after the administration of the amino acid preparation is shown in Table 2.
For typical three patients, a change in hemoglobin concentration was given as ΔHb value (amount of change of hemoglobin) calculated by deducting the hemoglobin concentration before the administration of the amino acid preparation from the hemoglobin concentration after the administration thereof in FIG. 1.

[3] = tested on: patients with renal anemia; assay: Clinical test: Cre (creatinine), enzymatic method; type: in vivo, human; conditions: effective cases 1, 2, 4 and 6
Text: (§1) 1.3 g of an amino acid preparation (trade name: Argi U granules, a product of Ajinomoto Pharma Co. Ltd.) (1.0 g of arginine) was orally administered in two portions everyday to each of 8 patients having an illness diagnosed as renal anemia (cases of chronic renal failure in conservative stage accompanying renal anemia, whose age, hemocytometric results and results of general biochemical tests are shown in Table 1). The administration period was at the longest 18 weeks. The amount of each of hemoglobin, BUN (blood urea nitrogen), Cre (creatinine), Fe and erythropoietin in blood was determined by methods described below.
Cre was determined by an enzymatic method (sarcosine oxidase[…]POD method).

[4] = tested on: patients with renal anemia; assay: Clinical test: erythropoietin in blood, ELISA; type: in vivo, human
Text: as §1
Erythropoietin was determined by ELISA method.

[5] = tested on: patients with renal anemia; assay: Clinical test: side effects; type: in vivo, human
Method: as §1, with “arginine) was orally administered in two portions everyday to each of 8 patients having an illness diagnosed as renal anemia (cases of chronic renal failure” left out

Molecule | EPO concentration in blood [1] | anemia after discontinuance of administration ([2]; 2 cases in the 7 effective cases) | Hb after further administration ([2]; 2.6 g/day for 1 month, increased from 10.7 g/dl) [g/dL] | judgement of results ([2]; cases 1 to 7) | judgement of results ([2]; cases 8 and 9) | Hb after discontinuance of administration ([2]; other 3 effective cases) | renal function [3] | EPO concentration in blood relative to rHuEPO preparation treatment ([4]; L-arginine versus conventional rHuEPO treatment) | EPO concentration in blood, at the highest ([4]; after the administration of L-arginine) | Epo productivity (Epo concentration in blood) ([4]; all the effective cases) | Epo productivity (Epo concentration in blood) ([4]; the two ineffective cases) | side effect ([5]; 9 administration cases) | side effect ([5]; further administration of 2.6 g/day for 1 month)
rHuEPO preparation: recombinant erythropoietin preparation, conventional treatment of renal anemia | about 130 mU/mL | – | – | – | – | – | – | – | – | – | – | – | –
N=C(N)NCCC[C@H](N)C(=O)O [L-arginine] | – | anemia became worse | 11.5 | effective | ineffective | Hb was not lowered | recovery of the renal function was recognized | less than ⅙ | about 20 mU/mL | increased | lowered | No evident side effect | no obvious side effect
